Data on one compound can be found in patent US12616674B2, “Anti-fibrotic NEU3 inhibitor compounds and methods of use” (The Texas A&M University System, priority 2019, dated 2026).

Entries after “also recorded” stand apart in the source; their conditions may differ.

For assay [1], the target named is T1, recombinant human sialidase NEU3 (Homo sapiens, UniProt Q9UQ49).
T1 construct: purchased Origene TP316537
T1 sequence (Q9UQ49 1-428): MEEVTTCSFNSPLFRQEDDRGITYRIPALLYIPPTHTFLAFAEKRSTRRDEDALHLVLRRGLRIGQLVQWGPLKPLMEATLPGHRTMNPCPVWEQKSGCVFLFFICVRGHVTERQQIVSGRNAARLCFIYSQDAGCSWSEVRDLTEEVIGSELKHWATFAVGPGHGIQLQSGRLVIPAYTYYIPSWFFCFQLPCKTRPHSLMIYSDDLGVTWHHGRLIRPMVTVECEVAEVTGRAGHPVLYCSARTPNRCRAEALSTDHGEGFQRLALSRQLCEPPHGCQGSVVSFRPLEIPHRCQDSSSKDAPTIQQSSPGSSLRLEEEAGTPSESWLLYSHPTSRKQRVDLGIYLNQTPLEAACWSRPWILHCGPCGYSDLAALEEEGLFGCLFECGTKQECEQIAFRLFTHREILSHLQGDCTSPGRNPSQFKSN
The assay can be described thus: NEU3-catalyzed L-TGF-β1 activation (TGF-β1 release/concentration assay, active TGF-β1 ELISA). The format is biochemical. Particulars: recombinant human NEU3, L-TGF-β1, PBS pH 6.9, 2 hours 37° C.; read-out: IC50, inhibits human NEU3 in the TGF-β1 concentration (release) assay. How it is done:
To determine if NEU3 can cause latent transforming growth factor-β1 (L-TGF-β1) to release active TGF-β1, 200 ng/ml recombinant human L-TGF-β1 (299-LT/CF, R&D Systems) was incubated with varying concentrations of recombinant human NEU3 (TP316537, Origene) in a total volume of 100 μl of PBS pH 6.9 in a 96-well microplate (651261, Greiner Bio-one, Monroe, NC). The microplates were covered with aluminum foil and incubated at 37° C. for 2 hours. Following incubation, the reaction mixtures were assayed using a TGF-β1 ELISA kit (DY240, R&D Systems) following the manufacturer's protocol with the exception that the reaction mixtures were not processed for acid treatment, so as to measure only active TGF-β1 and not total TGF-β1. The absorbance was read with a SynergyMX plate reader (BioTek, Winooski, VT).
To determine the ability of compounds 1-31 to inhibit human recombinant NEU3 in-vitro, compounds were dissolved in 5 ml water to 20 mM in 15 ml tubes (89039-664, VWR, Radnor, PA), with the exception that 4-hydroxypyridine-2-carboxylic acid, nicotinic acid, and 4-aminopicolinic acid were dissolved in 50 μl DMSO to 2 M, and this was then added to 4.95 ml of water to make a 20 mM stock, and O-(tetrahydro-2H-pyran-2yl) hydroxylamine and salicylic acid were dissolved in 50 μl methanol to 2 M, and this was then added to 4.95 ml of water to make a 20 mM stock. All stocks were stored at 4° C. and used within 2 weeks of preparation. A 10-fold dilution series of the compounds starting at 2 mM were made in PBS pH 6.9 in 1.7 ml clear microtubes (22-281, Genesee Scientific). 100 μl of diluted compound was added to the well of a 96 well plate and then 50 μl of 400 ng/ml recombinant human sialidase NEU3 (TP316537, Origene) in PBS pH 6.9 was added to each well (50 μl PBS pH 6.9 for the control), and the plate was incubated for 30 minutes at 37° C. 50 μl of 800 ng/ml L-TGF-β1 (299-LT/CF, R&D Systems) in PBS pH 6.9 was then added to the well. The plate was covered with aluminum foil and incubated for 2 hours at 37° C., and released active TGF-β1 was assayed as described above.

The test system of assay [2] is C57BL/6 mice on regular or high fat diet. The assay can be described thus: High fat diet C57BL/6 mice treated with intraperitoneal DANA. The format is in vivo, mouse. On the procedure:
12 week old male C57BL/6 mice (#000664; Jackson Laboratory, Farmington, CT) were fed standard rodent chow (15% kcal fat, Teklad 8604, Envigo, Madison WI) and 12-16 week old male C57BL/6 mice (#380050; Jackson) were fed a high fat diet (60% kcal fat, D12492 formula; Research Diets New Brunswick, NJ). Mice were placed on the specified diets for 6 weeks before the start of treatment. To determine if the sialidase inhibitor DANA (#252926-10MG, Millipore-Sigma, Burlington, MA) decreases high-fat diet induced weight gain, mice were treated every 48 hours with intraperitoneal injections of phosphate-buffered saline (PBS) or DANA at 10 mg/kg in PBS, formulated as 4 mg/ml in PBS. Mice were maintained on their specific diets and received injections every 48 hours for 5 weeks (35 days). Animals were housed with a 12-hour/12-hour light-dark cycle (lights on at 7 AM) with free access to food and water. All injections were performed between 9:00 and 11:00 AM. This protocol was done with specific approval of the Texas A&M University institutional animal care and use committee.
To determine the amount of steatosis (accumulation of fat in the cells of the liver), frozen sections were prepared by placing freshly isolated pieces of liver in Surgipath frozen section compound, freezing on dry ice, and storing at −80° C. 10-12 μm cryosections of liver were placed on glass slides and were stained with oil red O to detect the accumulation of lipids as described in Mehlem, A., et al., Imaging of neutral lipids by oil red O for analyzing the metabolic status in health and disease, Nat. Protoc., 2013. 8(6): p. 1149-54.
As in Example 9, mice were maintained on their specific diets and received injections of buffer or DANA every 48 hours for 5 weeks (35 days). Following euthanasia, liver tissue was removed, fixed, and then sectioned as described above.
This situation leads to elevated levels of glucose in the blood system, and following an increase in blood glucose (such as after a meal or an injection of glucose), the body takes longer than normal to reduce blood glucose levels. To determine if DANA could reduce blood glucose levels, on day 33 of the experiment described in […], mice were fasted for 16 hours starting at 5 PM. On day 34, mice received an IP injection of 1.5 g/kg glucose (Amresco, Solon, OH) formulated as 525 mg/ml in PBS. Blood glucose levels were measured before glucose administration (0 minutes), and at 20, 40, 60, 90, and 120 minutes after the injection using commercial blood glucose test strips (CVS Pharmacy, Woonsocket, RI).
Obesity is associated with increased size (weight) of many organs, including white fat and liver. To determine if the sialidase inhibitor DANA could prevent a high fat diet-induced increase in organ weights, at day 35 of the experiment described in Example 9, following euthanasia, organs including epididymal white adipose and inter-scapular brown adipose tissue, liver, spleen, lungs, and kidneys were weighed.

In assay [3] the test system is NEU3 enzymic activity, hepatic steatosis and weight gain in mice. To be noted: oral administration; cited from earlier work.
Setting [4] is: HFD mice, DANA vs control HFD, day 35, FIG. 19.

On to `CC(=O)N[C@@H]1C(O)C=C(C(=O)O)O[C@H]1[C@H](O)[C@H](O)CO` (stereo partly shown) [Compound 1, DANA], for which the IC50 in assay [1] was 250 µM. Besides, the “oil red O staining in the liver (neutral lipid accumulation)” value in assay [2] (HFD mice, DANA 10 mg/kg i.p. every 48 hours for 35 days, vs saline, FIG. 14) is “significant reduction”. Besides, the “F4/80 positive cells in the liver” value in assay [2] (HFD mice, DANA i.p. every 48 hours for 35 days, vs saline, FIG. 15) was “significant reduction”. Further, the “high fat diet induced weight gain” value in assay [2] (HFD mice, DANA i.p. injections vs PBS, after 21 days of treatment, FIG. 16) is “prevents weight gain; also recorded: significant reduction in weight gain”. The “total glucose levels (AUC over 120 minutes)” value in assay [2] (HFD mice, DANA vs HFD control, FIG. 18) was “significantly lower”. For the same compound, in assay [2] (HFD mice, DANA vs control HFD, at 60 minutes after 1.5 g/kg IP glucose, FIG. 17), the “blood glucose levels after glucose injection” value is reported as “significantly lower”. In assay [2] (setting [4]), the “brown fat weight (percent of body weight)” value is “significantly lower” and the “white fat weight (percent of body weight)” value is “significantly lower”. Further, the “weight of mice on regular chow” value in assay [2] (regular chow mice, DANA vs PBS injections) is listed as “no effect; also recorded: no significant differences in weight”. Also, the organ weights entry in assay [2] (regular chow mice, DANA vs PBS, day 35, FIG. 19) was “no significant differences in any organ weights”. For the same compound, the “oil red O staining in the liver” value in assay [2] (regular diet mice, DANA 10 mg/kg i.p. every 48 hours for 35 days, vs saline) is “no significant difference”. The “F4/80 staining in the liver” value in assay [2] (regular diet mice, DANA i.p. every 48 hours for 35 days, vs saline) is listed as “no significant difference”. For the same compound, the “fasting glucose levels or glucose levels after the glucose injection” value in assay [2] (standard chow mice, DANA vs PBS, FIG. 17) is reported as “no significant differences”. Further, in assay [3], the HFD-induced weight gain result is “attenuated”, the “NEU3 enzymic activity in the small intestine” value is on record as “inhibited” and the hepatic steatosis entry is recorded as “attenuated”.
